Results: patent US10973794B2, “Dental composition and use” (CALSCIENCE INTERNATIONAL LTD., priority 2015, dated 2021)

Columns and labels:
[1] = system: Sirtuin 2 (SIRT2); assay: Taqman Real Time-PCR expression of Sirtuin 2 in HFFs with and without H2O2 stress-induced premature senescence; assay type: cell-based, human; settings: without stress, FIG. 6
Experimental: (§1) The following results relate to the analysis of senescence tests on 1,5-Dicaffeoylquinic Acid (1,5-DCQA). FIG. 8 relates to 1,4-DCQA. The experiments were conducted using human foreskin fibroblasts (HFFs).
(§2) In the following experiments, HFFs were challenged for a period of two hours with 150 μM hydrogen peroxide (H2O2), to stimulate premature senescence in the presence and absence of 1,5-DCQA (1/1000 dilution), and subsequently assayed by Taqman Real Time-PCR for the expression of key senescence associated genes.
(§3) These genes are involved in cell cycle regulation and mitochondrial stress responses. Challenge with a near lethal level of oxidant stress typically induces an increase in SIRT2 and decrease in SIRT3 expression. […] This is indicative of each having a potential for stimulating cell proliferation in the absence of oxidant challenge.
(§4) The results shown in Table 2 and FIGS. 2 to 7 were generated using the polymerase chain reaction (PCR), wherein the dCt and ddCT values are results used in statistical analysis. The abbreviation dCt relates to “delta cycle threshold” and the abbreviation ddCt relates to “delta delta cycle threshold”. In these experiments, HPRT (hypoxanthine phosphoribosyltransferase, a protein from the HPRT-1 gene) was used as a control.

[2] = system: human foreskin fibroblasts (HFFs); assay: WST-1 Cell Proliferation Assay; assay type: cell-based
Experimental: as §1
The WST-1 Cell Proliferation Assay provides a sensitive and accurate assay for cell proliferation and cytotoxicity (cell viability). The WST assay is based on the cleavage of the tetrazolium salt WST-1 to formazan by cellular mitochondrial dehydrogenases. Expansion in the number of viable cells results in an increase in the overall activity of the mitochondrial dehydrogenases in the sample. The augmentation in enzyme activity results in an increase in the amount of formazan dye formed. The formazan dye produced by viable cells was quantified by a multi-well spectrophotometer by measuring the absorbance of the dye solution at 440 nm. The compound provided was tested in the WST assay over a range of dilutions. […] The results of the assay show the standard deviation (SD) for 1,5-DCQA and the control, and the mean values for 1,5-DCQA and the control.

[3] = system: Sirtuin 3 (SIRT3); assay: Taqman Real Time-PCR expression of Sirtuin 3 in HFFs with and without H2O2 stress-induced premature senescence; assay type: cell-based, human; settings: following oxidant challenge, FIG. 7
Experimental: as §1, §2, §3, §4

[4] = system: p16; assay: Taqman Real Time-PCR expression of p16 in HFFs with and without H2O2 stress-induced premature senescence; assay type: cell-based, human
Experimental: as §1, §2, §4

[5] = system: XRCC5; assay: Taqman Real Time-PCR expression of XRCC5 in HFFs with and without H2O2 stress-induced premature senescence; assay type: cell-based, human; settings: with and without 150 μM H2O2, FIG. 4
Experimental: as §1, §2
XRCC5 is a double strand break repair protein.
as §4

O=C(/C=C/c1ccc(O)c(O)c1)O[C@@H]1C[C@](OC(=O)/C=C/c2ccc(O)c(O)c2)(C(=O)O)C[C@@H](O)[C@H]1O [1,5-DCQA, 1,5-Dicaffeoylquinic Acid]
change in SIRT2 expression [1]: significant decrease in SIRT2 expression
effect on cell viability (WST assay) ([2]; 1/1000 and 2/1000 dilutions): beneficial to cell viability
Mean (WST-1 assay, absorbance at 440 nm) ([2]; dilution 1/1000): 0.916
Mean (WST-1 assay, absorbance at 440 nm) ([2]; dilution 2/1000): 0.868
Mean (WST-1 assay, absorbance at 440 nm) ([2]; dilution 3/1000): 0.717
Mean (WST-1 assay, absorbance at 440 nm) ([2]; dilution 4/1000): 0.363
Mean (WST-1 assay, absorbance at 440 nm) ([2]; dilution 5/1000): 0.178
Mean (WST-1 assay, absorbance at 440 nm) ([2]; dilution 6/1000): 0.300
Mean (WST-1 assay, absorbance at 440 nm) ([2]; dilution 7/1000): 0.419
Mean (WST-1 assay, absorbance at 440 nm) ([2]; dilution 8/1000): 0.196
Mean (WST-1 assay, absorbance at 440 nm) ([2]; dilution 9/1000): 0.115
Mean (WST-1 assay, absorbance at 440 nm) ([2]; dilution 10/1000): 0.069
change in SIRT3 expression [3]: increase in SIRT3 expression
effect on p16 expression following oxidant challenge ([4]; 150 μM H2O2, FIG. 2): excellent protection from oxidant challenge
effect on p16 expression in untreated cells ([4]; no H2O2, FIG. 2): no stress effect on untreated cells
expression of XRCC5 in comparison with the control data set [5]: substantially unaltered expression
